Test results reported in patent US20010038832A1, “Nitric oxide and analogues thereof effectuate sensitization of neoplasm and immunologically undesired tissues to cytotoxicity” (priority 2000, published 2001).

Tests used:
Type in all cases: cell-based
A2780 cells = experiment: Fas-mediated cytotoxicity (CH11, LDH release), A2780 cells
Protocol: (§1) In a preferred embodiment, A2780 and AD10 cells (1×10^4 cells/well) were cultured in 96-well plates supplemented with 10%FCS and pretreated with increasing concentrations of IFN-γ (0, 10, 100 and 1000 U/mL) 18 h prior to performing the cytotoxicity assay with increasing concentrations of the anti-Fas agonist antibody CH11 (0, 0.01, and 0.1 μg/mL).
(§2) Now also referring to FIGS. 3A and B, therein the role of iNOS in the mechanism of sensitization to Fas-mediated cytotoxicity of ovarian carcinoma cells is illustrated. Ovarian carcinoma cells, A2780 and AD10, were respectively incubated in the presence or in the absence of the competitive NOS inhibitor L-NMA (1 mM) 6 h prior to IFN-γ treatment. […] Furthermore, it is herein illustrated that the parental cell line A2780, which is not able to express iNOS upon IFN-γ stimulation, was not sensitized at the same level when compared with the adriamycin resistant cell line AD10, which is induced by IFN-γ alone to express iNOS.
(§3) The role of the endogenously generated NO in the IFN-γ-mediated sensitization to Fas-induced apoptosis was corroborated by the use of an exogenous source of NO, which mimics the production of NO by iNOS. […]
(§4) This example describes a preferred method of determining cytotoxicity. Sensitization to Fas-mediated apoptosis was assessed using the agonist anti-Fas monoclonal antibody CH11(IgM) [0.01, 0.1 and 1 μg/mL] […] After the initial incubation for each different experimental condition, released LDH into the culture supernatants was measured with a 30-minute coupled enzymatic assay which results in the conversion of a tetrazolium salt (INT) into a red formazan product that is read at 490 nm in an automated plate reader (Emax, Molecular Devices, Sunnyvale, Calif.). Percentage cytotoxicity was calculated using the spontaneous release-corrected OD as follows: % cytotoxicity=(OD of experimental well/OD of maximum release control well)×100.

AD10 cells [1] = experiment: Fas-mediated cytotoxicity (CH11, LDH release), AD10 cells
Protocol: as §1, §2, §3, §4

[2] = test system: Fas receptor protein in AD10 cells; experiment: Fas receptor protein level by Western blot, AD10 cells; details: FIG. 6C
Protocol: Now referring to FIG. 6C, the upregulation of Fas receptor was corroborated by Western blot. IFN-γ induced AD10 cells (1×10^7/plate) were cultured in a 100-mm plate supplemented with 10% FCS.
This example describes one preferred method of determining protein expression. Cell extracts for iNOS and Fas receptor analysis were prepared by lysing 5×10^6 cells in 1 mL phosphate buffer solution [10 mM EDTA, 1% triton X-100, 1 mM Phenylmethylsulfonyl fluoride (PMSF) and 0.01% leupeptin]. Cell lysates were boiled (3 min) with 1 volume gel loading buffer [50 mM Tris/10% sodium dodecyl sulfate (SDS)/10% glycerol/10% 2-mecaptoethanol/2 mg/mL bromophenol blue] and centrifuged at 1×10^4 g for 10 min. Protein concentrations of the supernatants were determined according to Bradford, and total protein equivalents for each sample were separated on 12% SDS-polyacrylamide minigels (Bio-Rad, Richmond, Calif.) and transferred to nitrocellulose membranes (Amersham Corp., Arlington Heights, Ill.). Nonspecific immunoglobulin G (IgG) binding sites were blocked with 5% dried milk protein, and samples were then incubated with the antibody to iNOS [1:1000] (Transduction Laboratories, Lexington, Ky.) or CD95 [1:500] (PharMingen, San Diego, Calif.).

AD10 cells [3] = experiment: Apoptosis by acridine orange/ethidium bromide staining, AD10 cells
Protocol: Now referring to FIGS. 5a through f, sensitization of AD10 to CH11 (Fas-ligand agonist)-mediated cytotoxicity was due to apoptosis. The morphological pattern was examined by staining the ovarian carcinoma cells with acridine orange/ethidium bromide (AO/EB).
This example describes one preferred embodiment for determining apoptosis through acridine orange/ethidium bromide staining. Characteristic apoptotic morphological changes were assessed by fluorescent microscopy using the acridine-orange and ethidium bromide staining (AO/EB) method. Briefly, adherent cells, under different experimental conditions, were cultured in 24 wells plates, and washed with PBS once prior to staining. Monolayers of adherent cells were covered with 100 μl of AO/EB solution (4 μg/mL of each). Immediately after adding the AO/EB solution, each sample was examined under an inverted/fluorescent microscope.

[4] = test system: Fas receptor mRNA in AD10 cells; experiment: Fas receptor mRNA expression by RT-PCR, AD10 cells
[5] = test system: Fas surface molecule on AD10 cells; experiment: Fas surface molecule expression by flow cytometry, AD10 cells
Protocol: (§5) This example describes one preferred method of separating and sorting cells through fluorescence-activated cell sorting (FACS). Surface Fas antigen expression on tumor cells was determined by flow cytometry. Briefly, harvested cells were washed with cold buffer consisting of PBS without Ca^++ or Mg^++ with 2% heat-inactivated FCS and 0.1% sodium azide. 2×10^5 cells per sample were pretreated with human AB serum (Gemini Bioproducts, Calabasas, Calif.) for 1 h, washed twice and resuspended in 50 μl of PBS. The cells were incubated with 10 μg/mL of anti-Fas monoclonal antibody FITC-conjugated (PharMingen, San Diego, Calif.) or isotype control antibody for 1 h. The cells were then washed twice and fixed in 2% paraformaldehyde solution (Sigma Chemical Co., St. Louis, Mo.) and flow cytometry was conducted all the FACScan facility of the UCLA Department of Microbiology and Immunology.

[6] = test system: NO production by iNOS in AD10 cells; experiment: NO2-/NO3- release into culture medium (Griess reaction), AD10 cells; details: FIG. 1B
Protocol: (§6) The activity of iNOS and generated NO were monitored by the release of NO2^−/NO3^− into the cell culture medium as determined by the Griess reaction.
(§7) This example describes one preferred method of determining nitrate and nitrite concentrations. Nitric oxide generation was monitored indirectly by levels of nitrite/nitrate (NO2^−/NO3^−) released into the culture medium as determined by the diazotization reaction of Griess with NaNO2 as standard Briefly, 50 μl aliquots of cell culture supernatants from each sample were mixed with one volume of Griess reagent [1% sulfanilamide; 0.1% naphthylethylene diamine dihydrochloride; 2.5% H3PO4] and incubated at room temperature for 10 min. The absorbance at 550 nm was measured in an automated plate reader (Emax, Molecular Devices, Sunnyvale, Calif.). Nitrite concentrations were calculated by comparison with OD550 values of standard solutions of sodium nitrite prepared in culture medium.

[7] = test system: iNOS expression in A2780 ovarian carcinoma cell line; experiment: iNOS expression in A2780 cells; details: parental A2780 cell line, data not shown
[8] = test system: Fas surface molecule on A2780 cells; experiment: Fas surface molecule expression by flow cytometry, A2780 cells; details: A2780, FIG. 6D legend
Protocol: as §5

[9] = test system: iNOS mRNA in AD10 ovarian carcinoma cells; experiment: iNOS mRNA expression by semiquantitative RT-PCR in AD10 cells; details: 18 hours, FIG. 1A
[10] = test system: NO generation in A2780 cells; experiment: NO generation upon IFN-γ stimulation, A2780 cells
Protocol: as §6, §7

## CC(=O)N[C@H](C(=O)O)C(C)(C)SN=O (racemic) [SNAP, S-Nitroso-N-acetylpenicillamine]
A2780 cells; A2780, NO donor 10 and 100 μM for 24 h before CH11, LDH release, FIG. 4A
  sensitization to Fas-mediated cytotoxicity by NO donor: sensitized
AD10 cells [1]; AD10, NO donor 10 and 100 μM for 24 h before CH11, LDH release, FIG. 4B
  sensitization to Fas-mediated cytotoxicity by NO donor: sensitized
[2]
  Fas protein level after addition of SNAP to IFN-γ plus NOS inhibitor: restored
AD10 cells [3]; AD10, NO donor alone, no CH11
  number of apoptotic cells, NO donor alone: did not increase the number of apoptotic cells
AD10 cells [3]; AD10, SNAP prior to exposure to CH11
  frequency of cells undergoing apoptosis, NO donor prior to CH11: increased the frequency of cells undergoing characteristic apoptosis
[4]; AD10, SNAP 0, 1, 10 and 100 μM, 18 h, FIG. 6A
  Fas receptor mRNA expression with NO donor: upregulated Fas receptor mRNA expression
[5]; AD10, FIG. 6D
  Fas surface expression after NO donor added to IFN-γ plus NOS inhibitor: restored

## CNC(=N)NCCC[C@H](N)C(=O)O [L-NMA, N^G-Monomethyl-L-arginine]
A2780 cells; A2780, L-NMA 1 mM 6 h prior to IFN-γ, FIG. 3A
  effect of NOS inhibition on IFN-γ-mediated sensitization to Fas-mediated apoptosis: did not respond to NOS blocking
[6]; L-NMA 1.0 mM prior to IFN-γ induction
  effect of NOS inhibitor on IFN-γ-induced NO2-/NO3- generation: blocking the generation of NO2^−/NO3^−
AD10 cells [1]; AD10, L-NMA 1 mM 6 h prior to IFN-γ, FIG. 3B
  effect of NOS inhibition on IFN-γ-mediated sensitization to Fas-mediated apoptosis: significantly decreased
[2]
  IFN-γ mediated upregulation of Fas protein level in presence of NOS inhibitor: markedly reduced
AD10 cells [3]; AD10, L-NMA 1 mM 6 h prior to IFN-γ pretreatment, then CH11
  frequency of cells undergoing apoptosis with NOS inhibitor: significantly reduced
[4]; AD10, IFN-γ 10 and 100 U/mL, L-NMA 1.0 mM, 24 hours, FIG. 6B
  Fas mRNA expression with NOS blocking: markedly reduced
[5]; AD10, IFN-γ 10 U/mL, FIG. 6D
  IFN-γ-increased Fas surface expression with NOS inhibitor: partially blocked

## IFN-γ: human recombinant IFN-γ, gamma interferon cytokine
[7]
  iNOS expression upon IFN-γ treatment: not possible to detect any iNOS expression
[8]
  expression of Fas surface molecule with IFN-γ: increased expression
[6]; IFN-γ 0 to 1000 U/ml, 18 hours
  production of NO (nitrites and nitrates in culture medium) upon IFN-γ: can be induced by IFN-γ to produce NO by iNOS
[2]
  Fas protein level with IFN-γ: upregulation of Fas protein level
[9]; 1% FCS
  IFN-γ concentration at which significant levels of iNOS mRNA were observed: 1 U/mL
[9]
  IFN-γ concentration at which plateau of iNOS mRNA expression was reached: 100 U/mL
AD10 cells [3]; AD10, IFN-γ 18 h then CH11 0.1 μg/mL 6 h
  frequency of cells undergoing apoptosis vs untreated control group: greater frequency of cells undergoing apoptosis
[5]; AD10, IFN-γ 10 U/mL, 18 hours, FIG. 6D
  expression of Fas surface molecule vs untreated control cells: increased expression
[10]
  NO generation upon IFN-γ stimulation: cannot generate NO

B1: IFN-γ: human recombinant IFN-γ, gamma interferon cytokine (protein, UniProt P01579 24-161, looked up)
Interferon gamma: QDPYVKEAENLKKYFNAGHSDVADNGTLFLGILKNWKEESDRKIMQSQIVSFYFKLFKNFKDDQSIQKSVETIKEDMNVKFFNSNKKKRDDFEKLTNYSVTDLNVQRKAIHELIQVMAELSPAAKTGKRKRSQMLFRG
A2780 cells; A2780 compared with AD10, IFN-γ 18 h then CH11, FIG. 2A
  capacity of being sensitized by IFN-γ to Fas-mediated cytotoxicity: lower capacity of being sensitized
AD10 cells [1]; AD10, IFN-γ pretreatment 18 h, then CH11, FIG. 2B
  sensitization to Fas-mediated cytotoxicity compared with untreated control group: 10 fold
